Laboratory results from the CheMixHub ionic liquid set.

Assay: xn = mol fraction of the nth substance listed

CS(C)=O + CCCC[n+]1ccn(C)c1.O=S(=O)([N-]S(=O)(=O)C(F)(F)F)C(F)(F)F
100 kPa
Settings | electrical conductivity [S/m] | viscosity [mPa·s]
294.5 K, x2 = 0.02028 | 0.45 | –
298.15 K, x1 = 0.5903 | – | 13.22
303.15 K, x1 = 0.2885 | – | 23.78
303.15 K, x1 = 0.5026 | – | 13.9
308.15 K, x1 = 0.5903 | – | 9.52
308.15 K, x1 = 1 | – | 1.67
313.15 K, x1 = 0.0951 | – | 23.09
313.15 K, x1 = 0.2074 | – | 19.57
313.15 K, x1 = 0.5903 | – | 8.39
313.15 K, x1 = 1 | – | 1.53
323.15 K, x1 = 0.9012 | – | 2.15

CCCC[n+]1ccn(C)c1.[Br-] + O=C(O)c1cccnc1 + O
viscosity [mPa·s], 100 kPa
Settings | 293.15 K | 298.15 K | 303.15 K | 308.15 K | 313.15 K | 318.15 K
x2 = 0, x1 = 0.0009002 | 1.033 | 0.918 | 0.823 | 0.753 | 0.676 | 0.619
x2 = 0, x1 = 0.001799 | 1.057 | 0.938 | 0.84 | 0.758 | 0.689 | 0.631
x2 = 0, x1 = 0.002696 | 1.069 | 1 | 0.905 | 0.795 | 0.749 | 0.68

CS(C)=O + CC[NH+](CC)CC.O=P([O-])(O)O
101 kPa, x1 = 1
Settings | viscosity [mPa·s]
298.15 K | 1.99
303.15 K | 1.8
308.15 K | 1.65

CCCC[N+](CCCC)(CCCC)CCCC.[Cl-] + C[C@@H](O)[C@H](N)C(=O)O
101 kPa
Settings | electrical conductivity, x2 = 0.09091 [S/m] | electrical conductivity, x2 = 0.1 [S/m] | electrical conductivity, x2 = 0.1111 [S/m] | viscosity, x2 = 0.09091 [mPa·s] | viscosity, x2 = 0.1 [mPa·s] | viscosity, x2 = 0.1111 [mPa·s]
303.15 K | 0.0086 | 0.0049 | 0.0067 | 223 | 179 | 1020
313.15 K | 0.0157 | 0.0117 | 0.0135 | 131 | 104 | 630
323.15 K | 0.0279 | 0.0199 | 0.0236 | 73 | 68 | 322
333.15 K | 0.039 | 0.0311 | 0.036 | 46 | 43 | 186
343.15 K | 0.045 | 0.0402 | – | 34 | 31 | 109
353.15 K | 0.0583 | 0.0516 | 0.0569 | 24 | 24 | 63

CCCCCCCCCCCCCC[P+](CCCCCC)(CCCCCC)CCCCCC.[c-]1c[nH]nn1 + CCCC[n+]1ccn(C)c1.O=S(=O)([N-]S(=O)(=O)C(F)(F)F)C(F)(F)F
100 kPa
Settings | viscosity [mPa·s]
278.15 K, x2 = 0.2 | 2422
283.15 K, x2 = 0.1 | 1490
283.15 K, x2 = 0.722 | 481
293.15 K, x2 = 0.301 | 663
298.15 K, x2 = 0.1 | 486
298.15 K, x2 = 0.388 | 428
298.15 K, x2 = 0.9 | 77
303.15 K, x2 = 0.1 | 353
303.15 K, x2 = 0.301 | 339
308.15 K, x2 = 0.2 | 273
313.15 K, x2 = 0.2 | 205
313.15 K, x2 = 0.388 | 174
318.15 K, x2 = 0.2 | 158
318.15 K, x2 = 0.301 | 147
318.15 K, x2 = 0.8 | 50
323.15 K, x2 = 0.301 | 115

C[NH2+]CCC=C1c2ccccc2CCc2ccccc21.[Cl-] + CC[n+]1ccn(C)c1.[Br-] + O
viscosity [mPa·s], 100 kPa
Settings | 288.15 K | 298.15 K | 308.15 K | 318.15 K
x1 = 0.0001985, x2 = 0.0001801 | 1.149 | 0.92 | 0.754 | 0.638
x1 = 0.0002171, x2 = 0.0007201 | 1.157 | 0.927 | 0.76 | 0.645
x1 = 0.0002197, x2 = 0.00126 | 1.164 | 0.936 | 0.768 | 0.653
x1 = 0.0005409, x2 = 0.0001801 | 1.158 | 0.928 | 0.761 | 0.646
x1 = 0.00056, x2 = 0.001259 | 1.173 | 0.944 | 0.776 | 0.662
x1 = 0.0005649, x2 = 0.0007199 | 1.166 | 0.935 | 0.768 | 0.653
x1 = 0.0009071, x2 = 0.0007196 | 1.176 | 0.944 | 0.776 | 0.66
x1 = 0.0009111, x2 = 0.00018 | 1.168 | 0.936 | 0.769 | 0.652
x1 = 0.0009287, x2 = 0.001259 | 1.183 | 0.952 | 0.784 | 0.67
x1 = 0.001275, x2 = 0.001258 | 1.194 | 0.962 | 0.792 | 0.678
x1 = 0.001279, x2 = 0.0001799 | 1.179 | 0.945 | 0.776 | 0.659
x1 = 0.001292, x2 = 0.0007194 | 1.187 | 0.953 | 0.784 | 0.667
x1 = 0.001649, x2 = 0.0007191 | 1.199 | 0.963 | 0.792 | 0.674
x1 = 0.001657, x2 = 0.0001799 | 1.19 | 0.954 | 0.784 | 0.666
x1 = 0.001661, x2 = 0.001258 | 1.206 | 0.972 | 0.8 | 0.686
x1 = 0.002001, x2 = 0.0001798 | 1.201 | 0.964 | 0.792 | 0.674
x1 = 0.002028, x2 = 0.0007188 | 1.211 | 0.974 | 0.8 | 0.681
x1 = 0.002029, x2 = 0.001257 | 1.218 | 0.982 | 0.809 | 0.694
x1 = 0.002358, x2 = 0.0001797 | 1.213 | 0.975 | 0.801 | 0.682
x1 = 0.002375, x2 = 0.001257 | 1.231 | 0.993 | 0.818 | 0.702
x1 = 0.002379, x2 = 0.0007186 | 1.223 | 0.984 | 0.808 | 0.689
x1 = 0.002737, x2 = 0.0001797 | 1.226 | 0.986 | 0.81 | 0.691
x1 = 0.002745, x2 = 0.001256 | 1.244 | 1.004 | 0.827 | 0.71
x1 = 0.002757, x2 = 0.0007183 | 1.236 | 0.994 | 0.817 | 0.698
x1 = 0.00309, x2 = 0.001256 | 1.258 | 1.015 | 0.836 | 0.718
x1 = 0.003104, x2 = 0.0001796 | 1.24 | 0.997 | 0.819 | 0.7
x1 = 0.003108, x2 = 0.000718 | 1.249 | 1.005 | 0.826 | 0.707
x1 = 0.003467, x2 = 0.0001795 | 1.255 | 1.008 | 0.829 | 0.709
x1 = 0.003489, x2 = 0.0007178 | 1.263 | 1.016 | 0.836 | 0.716
x1 = 0.00349, x2 = 0.001255 | 1.272 | 1.026 | 0.846 | 0.725
